From PMC5107132 (European journal of pharmacology, 2016)

Assays:
[1] = biological target: T1, α5β3γ2 GABAA receptors (Rattus norvegicus, UniProt P18508+P19969); test: Two-electrode voltage clamp in Xenopus oocytes, α5β3γ2; assay type: cell-based
[2] = biological target: T2, α3β3γ2 GABAA receptors (Rattus norvegicus, UniProt P18508+P20236); test: Two-electrode voltage clamp in Xenopus oocytes, α3β3γ2; assay type: cell-based; conditions: 200 mg/kg dose
[3] = biological target: α3β3γ2S GABAA receptors (Rattus norvegicus, UniProt P18508+P20236); conditions: read-out: Ki at α3β3γ2 GABAA receptors; ref Savić et al., 2010; cited from earlier work
[4] = biological target: α1β3γ2S GABAA receptors (Rattus norvegicus, UniProt P18508+P62813); conditions: read-out: Ki at α1β3γ2 GABAA receptors; ref Savić et al., 2010; cited from earlier work
[5] = biological target: T1, α5β3γ2 GABAA receptors; conditions: 100 nM; ref Savić et al., 2010; cited from earlier work
[6] = In vitro hydrolytic stability study in rat plasma; assay type: in vitro ADME; conditions: for % remaining in plasma (in vitro metabolic stability) / Total plasma concentration (in vitro metabolic stability): rat plasma 37 °C
[7] = biological target: α2β3γ2S GABAA receptors (Rattus norvegicus, UniProt P18508+P23576); conditions: read-out: Ki at α2β3γ2 GABAA receptors; ref Savić et al., 2010; cited from earlier work
[8] = biological target: T3, α5β3γ2S GABAA receptors (Rattus norvegicus, UniProt P18508+P19969); conditions: read-out: Ki at α5β3γ2 GABAA receptors; ref Savić et al., 2010; cited from earlier work
[9] = biological target: α1β3γ2 GABAA receptors (Rattus norvegicus, UniProt P18508+P62813); conditions: 100 nM; ref Savić et al., 2010; cited from earlier work
[10] = biological target: T3, α5β3γ2S GABAA receptors; test: 3H-flunitrazepam competition binding, α5β3γ2S; conditions: ratio of Ki values
[11] = biological target: T2, α3β3γ2 GABAA receptors; conditions: 100 nM; ref Savić et al., 2010; cited from earlier work
[12] = test system: Wistar rats; test: Rotarod test; assay type: in vivo, rat; conditions: 200 mg/kg i.p.; vs. 180 s with control animals; n = 4
[13] = biological target: κ opioid receptor (KOR) (Homo sapiens, UniProt P41145); conditions: read-out: Affinity at KOR; ref B. Roth et al., NIMH Psychoactive Drug Screening Program; cited from earlier work
[14] = biological target: T4, α2β3γ2 GABAA receptors (Rattus norvegicus, UniProt P18508+P23576); conditions: 100 nM; ref Savić et al., 2010; cited from earlier work
[15] = biological target: T4, α2β3γ2 GABAA receptors; test: Two-electrode voltage clamp in Xenopus oocytes, α2β3γ2; assay type: cell-based; conditions: 200 mg/kg dose
[16] = Pharmacokinetic study, plasma and brain concentrations after i.p. injection; conditions: rat, 20 min
[17] = Plasma protein and brain tissue binding; assay type: in vitro ADME, rat; conditions: rapid equilibrium dialysis
[18] = test system: Wistar rats; conditions: ref Savić et al., 2008; cited from earlier work

## C#Cc1ccc2c(c1)C(c1ccccc1F)=N[C@H](C)c1c(C(=O)OCC)ncn1-2 [SH-053-2′F-R-CH3]
[1]; approximated from estimated free rat brain concentration, 200 mg/kg i.p.
  Estimated potentiation of GABA-mediated currents at α5GABAARs: 280%
[1]; read from concentration-response curves of Savić et al., 2010
  Concentration needed to elicit 300% potentiation at α5GABAARs: above 300 nM
[2]
  Estimated potentiation at α3GABAARs: 155%
[3]
  Ki: 0.769 µM
[4]
  Ki: 0.759 µM
[5]
  % of control current, α5β3γ2: 183 ± 7%
[6]; 0 min
  % remaining in plasma (in vitro metabolic stability): 100%
  Total plasma concentration (in vitro metabolic stability): 0.5556 µM
[6]; 30 min
  % remaining in plasma (in vitro metabolic stability): 76.64%
  Total plasma concentration (in vitro metabolic stability): 0.4258 ± 0.0042 µM
[6]; 60 min
  % remaining in plasma (in vitro metabolic stability): 62.77%
  Total plasma concentration (in vitro metabolic stability): 0.3487 ± 0.0040 µM
[6]; 120 min
  % remaining in plasma (in vitro metabolic stability): 38.27%
  Total plasma concentration (in vitro metabolic stability): 0.2126 ± 0.0036 µM
[6]; 240 min
  % remaining in plasma (in vitro metabolic stability): 5.24%
  Total plasma concentration (in vitro metabolic stability): 0.0291 ± 0.0023 µM
[6]; rat, plasma
  In vitro metabolic stability during incubation in rat plasma: less stable
[7]
  Ki: 0.948 µM
[8]
  Ki: 0.0952 µM
[9]
  % of control current, α1β3γ2: 111 ± 2%
[10]
  Selectivity in binding to α5GABAARs compared to α1-containing GABAA receptors: 8 fold
  Selectivity in binding to α5GABAARs compared to α2-containing GABAA receptors: 10 fold
[11]
  % of control current, α3β3γ2: 125 ± 8%
[12]
  Rotarod, time remaining on the rod: 154 ± 26 s
[13]
  Ki: 0.24 µM
[14]
  % of control current, α2β3γ2: 124 ± 9%
[15]
  Estimated potentiation at α2GABAARs: 171%
[16]; 10 mg/kg i.p.
  Brain free (estimated) concentration: 29.10 ± 5.14 nmol/kg
  Brain total concentration: 752.00 ± 132.84 nmol/kg
  Plasma free (estimated) concentration: 278.60 ± 52.39 nmol/L
  Plasma total concentration: 406.43 ± 76.45 nmol/L
[16]; 20 mg/kg i.p.
  Brain free (estimated) concentration: 38.85 ± 3.39 nmol/kg
  Brain total concentration: 1003.57 ± 87.55 nmol/kg
  Plasma free (estimated) concentration: 288.32 ± 47.99 nmol/L
  Plasma total concentration: 420.63 ± 70.01 nmol/L
[16]; 30 mg/kg i.p.
  Brain free (estimated) concentration: 64.40 ± 14.64 nmol/kg
  Brain total concentration: 1663.84 ± 378.29 nmol/kg
  Plasma free (estimated) concentration: 380.78 ± 46.73 nmol/L
  Plasma total concentration: 555.51 ± 68.18 nmol/L
[16]; 150 mg/kg i.p.
  Brain free (estimated) concentration: 147.74 ± 37.36 nmol/kg
  Brain total concentration: 3816.79 ± 965.21 nmol/kg
  Plasma free (estimated) concentration: 1100.14 ± 186.36 nmol/L
  Plasma total concentration: 1604.96 ± 271.88 nmol/L
[16]; 200 mg/kg i.p.
  Brain free (estimated) concentration: 324.16 ± 89.88 nmol/kg
  Brain total concentration: 8374.25 ± 2322.03 nmol/kg
  Plasma free (estimated) concentration: 1876.71 ± 196.63 nmol/L
  Plasma total concentration: 2737.87 ± 286.86 nmol/L
[17]; rat brain tissue
  Free fraction in brain tissue: 3.87%
[17]; rat plasma
  Free fraction in plasma: 68.55%

## C#Cc1ccc2c(c1)C(c1ccccc1F)=N[C@@H](C)c1c(C(=O)OCC)ncn1-2 [SH-053-2′F-S-CH3]
[18]
  Median incapacitating dose (rotarod): 219 mg/kg
